This experiment deals with T1, hNLRP3 (Homo sapiens, UniProt Q96P20).
T1 construct: THP-1 cells were purchased from the American Type Culture Collection; host or cells: THP-1 cells, PMA-differentiated
Nature of the experiment: Measurement of IL-1β production in PMA-differentiated THP-1 cells (hNLRP3 agonist; ELISA, alternative and hTRF procedures). The class given is cell-based. The essentials: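 PMA-differentiated THP-1 cells (PMA […] 24 h, 20 μg/ml overnight, or 50 ng/ml overnight, by procedure) replated in RPMI with 2% FBS and exposed to compound (e.g. 100–0.1 μM, 1% DMSO; hTRF format top 10 μM) for 4 h, 2 h, or 2 h respectively. Supernatant IL-1β measured by ELISA, or by hTRF with antibodies diluted 1:40.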
(In general: ELISA stands for enzyme-linked immunosorbent assay.)

SMILES strings stand for the structures.

T1 sequence (Q96P20 whole entry): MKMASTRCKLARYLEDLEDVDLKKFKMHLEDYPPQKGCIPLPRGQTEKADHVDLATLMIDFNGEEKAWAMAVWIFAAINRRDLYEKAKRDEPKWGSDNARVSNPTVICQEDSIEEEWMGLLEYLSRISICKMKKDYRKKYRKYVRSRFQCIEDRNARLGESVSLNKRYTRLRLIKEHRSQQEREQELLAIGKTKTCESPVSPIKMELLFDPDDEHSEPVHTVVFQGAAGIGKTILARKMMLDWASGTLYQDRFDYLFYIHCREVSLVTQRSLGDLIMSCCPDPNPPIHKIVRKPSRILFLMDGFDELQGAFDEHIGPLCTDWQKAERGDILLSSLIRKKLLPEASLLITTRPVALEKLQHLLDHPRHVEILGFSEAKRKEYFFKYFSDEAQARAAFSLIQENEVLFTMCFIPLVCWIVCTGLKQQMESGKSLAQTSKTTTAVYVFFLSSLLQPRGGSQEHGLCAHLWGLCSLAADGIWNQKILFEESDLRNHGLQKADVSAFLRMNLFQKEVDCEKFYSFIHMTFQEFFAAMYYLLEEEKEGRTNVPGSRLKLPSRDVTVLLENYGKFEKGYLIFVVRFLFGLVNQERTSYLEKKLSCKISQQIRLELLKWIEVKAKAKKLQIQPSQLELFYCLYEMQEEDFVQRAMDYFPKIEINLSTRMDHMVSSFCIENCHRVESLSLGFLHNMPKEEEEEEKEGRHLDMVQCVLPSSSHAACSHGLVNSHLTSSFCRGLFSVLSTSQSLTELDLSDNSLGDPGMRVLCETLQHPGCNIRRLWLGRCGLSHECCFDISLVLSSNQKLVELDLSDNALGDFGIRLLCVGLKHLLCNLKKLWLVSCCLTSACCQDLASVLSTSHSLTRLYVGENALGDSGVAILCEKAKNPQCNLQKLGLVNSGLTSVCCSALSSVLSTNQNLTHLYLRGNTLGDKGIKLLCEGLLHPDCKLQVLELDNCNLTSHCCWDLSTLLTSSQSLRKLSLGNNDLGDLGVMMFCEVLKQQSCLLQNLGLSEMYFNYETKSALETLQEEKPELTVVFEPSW

In general, EC50 refers to the concentration at which the effect is half-maximal. As to `CC(c1nc2c(N)nc3cc(Br)ccc3c2[nH]1)N1CCCC1=O` (stereo not shown) [Compound 303, 1-[1-(4-amino-7-bromo-1H-imidazo[4,5-c]quinolin-2-yl)ethyl]pyrrolidin-2-one], the EC50 is 11.1 µM.
